Peptide text beside a SMILES is read from it.
How the values were obtained:
[1] = biological target: T1, Solute carrier organic anion transporter family member 1A1 (Rattus norvegicus, UniProt P46720); experiment: TP_TRANSPORTER: uptake in Oatp1-expressing COS-7 cells; assay type: functional, cell-based; details: monkey
T1 sequence (P46720 whole entry): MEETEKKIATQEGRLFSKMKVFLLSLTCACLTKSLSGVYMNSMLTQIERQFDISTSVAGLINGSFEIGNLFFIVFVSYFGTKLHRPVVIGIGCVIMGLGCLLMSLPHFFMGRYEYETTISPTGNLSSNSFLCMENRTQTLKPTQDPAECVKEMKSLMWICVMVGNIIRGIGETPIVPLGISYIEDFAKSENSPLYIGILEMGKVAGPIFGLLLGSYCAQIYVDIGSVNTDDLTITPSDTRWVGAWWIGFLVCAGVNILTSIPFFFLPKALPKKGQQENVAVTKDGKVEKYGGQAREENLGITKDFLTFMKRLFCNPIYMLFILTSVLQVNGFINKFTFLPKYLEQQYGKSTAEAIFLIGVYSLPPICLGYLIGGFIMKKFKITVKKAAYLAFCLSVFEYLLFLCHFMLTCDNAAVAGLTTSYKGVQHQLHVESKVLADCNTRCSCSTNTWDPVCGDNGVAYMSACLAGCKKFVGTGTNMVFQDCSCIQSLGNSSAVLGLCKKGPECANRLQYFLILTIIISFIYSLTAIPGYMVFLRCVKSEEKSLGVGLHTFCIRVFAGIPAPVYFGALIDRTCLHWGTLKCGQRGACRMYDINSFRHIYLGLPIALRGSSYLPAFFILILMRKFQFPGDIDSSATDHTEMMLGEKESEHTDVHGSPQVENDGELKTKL

[2] = biological target: T2, Hepatic sodium/bile acid cotransporter (Rattus norvegicus, UniProt P26435); experiment: TP_TRANSPORTER: uptake in Ntcp-expressing COS-7 cells; assay type: functional, cell-based; details: monkey
T2 sequence (P26435 whole entry): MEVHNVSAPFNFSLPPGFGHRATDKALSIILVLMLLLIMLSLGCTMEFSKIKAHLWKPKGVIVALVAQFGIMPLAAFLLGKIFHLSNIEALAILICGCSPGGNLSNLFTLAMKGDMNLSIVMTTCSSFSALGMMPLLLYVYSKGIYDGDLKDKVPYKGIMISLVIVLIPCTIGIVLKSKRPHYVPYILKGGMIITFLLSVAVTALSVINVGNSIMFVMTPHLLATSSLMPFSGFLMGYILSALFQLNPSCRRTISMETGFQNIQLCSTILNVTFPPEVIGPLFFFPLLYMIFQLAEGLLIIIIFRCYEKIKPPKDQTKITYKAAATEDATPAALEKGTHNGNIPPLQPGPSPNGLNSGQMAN

Activity [1]: is not a substrate [-] | Activity [2]: is not a substrate [-]
SMILES: CC(C)C[C@@H]1NC(=O)[C@@H](C(C)C)NC(=O)[C@@H]2CCCN2C(=O)[C@@H](CC(=O)O)NC(=O)[C@@H](Cc2c[nH]c3ccccc23)NC1=O [BQ-123] (HELM PEPTIDE1{L.[dW].[dD].P.[dV]}$PEPTIDE1,PEPTIDE1,1:R1-5:R2$$$V2.0)

Reference: ChEMBL document CHEMBL2073924, “Carrier-mediated hepatic uptake of peptidic endothelin antagonists in rats” (J Pharmacol Exp Ther, 1999)
